The source of these data is patent US11999727B2 (Tango Therapeutics, Inc., priority 2020, dated 2024).

Assay [1] has as its system HAP1 MTAP-deleted cell line. As to the kind of experiment: SDMA in-cell western assay, HAP1 MTAP-deleted. It counts as cell-based. The settings on record: for IC50: Homo sapiens, HAP1, SDMA in-cell western, HAP1 MTAP-deleted; for MTAP intact/deleted ratio: SDMA in-cell western. The method in brief:
(§1)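 MTAP-null vs endogenous-MTAP HAP1 isogenic cells; in-cell western SDMA readout; IC50 per line.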

The target in assay [2] is T1, PRMT5 (Homo sapiens, UniProt O14744).
T1 construct: purchased Viva (custom protein)
T1 sequence (O14744 whole entry): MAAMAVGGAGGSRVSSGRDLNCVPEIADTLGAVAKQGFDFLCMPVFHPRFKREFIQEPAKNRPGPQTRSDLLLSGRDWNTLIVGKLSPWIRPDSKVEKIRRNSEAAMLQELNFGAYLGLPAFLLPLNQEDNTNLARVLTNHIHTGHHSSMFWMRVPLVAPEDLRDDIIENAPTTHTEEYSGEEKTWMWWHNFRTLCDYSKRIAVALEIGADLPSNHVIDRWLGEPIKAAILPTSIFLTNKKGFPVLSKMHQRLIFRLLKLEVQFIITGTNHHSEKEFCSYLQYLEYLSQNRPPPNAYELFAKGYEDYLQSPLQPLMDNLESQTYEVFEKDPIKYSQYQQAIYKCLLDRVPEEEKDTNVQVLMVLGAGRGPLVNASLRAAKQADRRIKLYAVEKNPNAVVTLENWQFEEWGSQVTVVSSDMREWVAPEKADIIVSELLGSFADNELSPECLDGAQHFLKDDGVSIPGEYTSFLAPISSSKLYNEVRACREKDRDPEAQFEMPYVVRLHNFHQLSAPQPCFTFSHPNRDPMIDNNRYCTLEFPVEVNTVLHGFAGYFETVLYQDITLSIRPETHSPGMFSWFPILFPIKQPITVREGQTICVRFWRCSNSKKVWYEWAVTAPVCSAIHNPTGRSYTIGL
T1 sequence (Q9BQA1 whole entry partner): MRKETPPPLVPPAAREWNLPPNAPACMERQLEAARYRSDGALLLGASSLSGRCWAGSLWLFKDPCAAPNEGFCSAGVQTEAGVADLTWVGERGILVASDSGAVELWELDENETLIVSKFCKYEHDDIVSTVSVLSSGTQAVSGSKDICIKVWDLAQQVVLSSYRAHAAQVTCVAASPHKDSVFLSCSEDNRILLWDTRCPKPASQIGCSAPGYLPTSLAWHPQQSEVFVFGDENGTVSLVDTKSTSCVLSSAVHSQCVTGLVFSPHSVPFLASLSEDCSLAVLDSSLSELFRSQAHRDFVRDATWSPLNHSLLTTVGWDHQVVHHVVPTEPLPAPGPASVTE
As to the kind of experiment: PRMT5 biochemical IC50 assay with no cofactor. The settings on record: PRMT5, no cofactor. The text has this: Table 1 indicates IC50 values (μM) against PRMT5 for exemplary compounds in the presence of SAM as cofactor, with no cofactor, and with MTA as cofactor, respectively (columns 4-6). […] Ki values can be calculated from the IC50 values as described in the Examples section. As detailed in the Examples section, for the assay performed in the presence of SAM, IC50=Ki×1.5 (Ki=IC50/1.5).

Assay [3] addresses T1, PRMT5. As to the kind of experiment: PRMT5 biochemical IC50 assay with SAM as cofactor. The settings on record: PRMT5, SAM as cofactor; read-out: SAM IC50.
For assay [4], the system named is HAP1 MTAP-deleted cell line. As to the kind of experiment: Viability assay, MTAP-deleted cell line. It counts as cell-based. The settings on record: Homo sapiens, read-out: HAP1 MTAP deleted viability. The text has this:
Table 1 additionally indicates IC50 values in a viability assay for the MTAP-deleted cell line (column 10), indicating the effect of treatment with compound on cell survival.

Assay [5] relates to HAP1 MTAP-intact cell line. In words: SDMA in-cell western assay, HAP1 MTAP-intact. It counts as cell-based. The settings on record: Homo sapiens, HAP1, SDMA in-cell western, HAP1 MTAP-intact; read-out: MTAP HAP1 intact IC50. The method in brief: as §1
Assay [6] concerns the target T1, PRMT5. As to the kind of experiment: PRMT5 biochemical IC50 assay with MTA as cofactor. The settings on record: PRMT5, MTA as cofactor; read-out: MTA IC50.
Setting [7] is: read-out: HAP1 MTAP deleted IC50.
[8] abbreviates: IC50 ratio HAP1 MTAP-intact / HAP1 MTAP-deleted.
The mark [9] stands for this setting: HAP1, viability assay, MTAP-deleted cell line.
The mark [10] stands for this setting: IC50 ratio HAP1 MTAP-intact vs HAP1 MTAP-deleted.
Where [11] appears, read: read-out: HAP 1 MTAP deleted IC50.
The mark [12] stands for this setting: read-out: No Cofactor/ rel IC50.
[13] abbreviates: HAP1, viability, HAP1 MTAP-deleted cell line.

For the compound `NC(=O)c1cncc(NC(=O)C(=O)N2CCC3(CC2)CCS(=O)(=O)CC3)c1` [Compound 195, 5-(2-(3,3-Dioxido-3-thia-9-azaspiro[5.5]undecan-9-yl)-2-oxoacetamido)nicotinamide], the IC50 was more than 1 µM in assay [1] (setting [7]); more than 0.5 µM at PRMT5 [2] (read-out: No Cofactor/rel IC50); more than 0.5 µM on PRMT5 [3]; more than 10 µM in assay [4] (setting [9]); more than 1 µM in assay [5]; 0.05 to 0.5 µM at PRMT5 [6]. The MTAP intact/deleted ratio result in assay [1] (setting [8]) was “C (an IC50 ratio of less than 3 fold)”.

Consider `Cc1cc(NC(=O)C(=O)N2C[C@H](C)CC[C@H]2c2cc(F)c(F)c(F)c2)cnc1N` (single isomer, unassigned) [Compound 478], for which the IC50 in assay [1] (setting [7]) was 0.1 to 1 µM; on PRMT5 [2] (read-out: No Cofactor/rel IC50) it was 0.05 to 0.5 µM; on PRMT5 [3] it was 0.05 to 0.5 µM; in assay [4] (setting [9]), 1 to 10 µM; in assay [5], more than 1 µM; on PRMT5 [6], less than 0.05 µM. Moreover, the MTAP intact/deleted ratio result in assay [1] (setting [8]) was “A (an IC50 ratio greater than or equal to 10 fold)”.

On to `C[C@H]1CC[C@H](c2cccc(N(C)C)c2)N(C(=O)C(=O)Nc2cncc(C(N)=O)c2)C1` (single isomer, unassigned) [Compound 374], for which the IC50 is more than 1 µM in assay [1] (setting [7]); more than 0.5 µM on PRMT5 [2] (read-out: No Cofactor/rel IC50); more than 0.5 µM at PRMT5 [3]; more than 10 µM in assay [4] (setting [9]); more than 1 µM in assay [5]; more than 0.5 µM at PRMT5 [6]. Also, in assay [1] (setting [8]), the MTAP intact/deleted ratio entry is reported as “C (an IC50 ratio of less than 3 fold)”.

On to `CCc1cc(NC(=O)C(=O)N2C[C@@H](C)CC[C@@H]2c2ccc3sc(C4CCN(C)CC4)nc3c2)cnc1C` [Compound 1100, N-(5-ethyl-6-methylpyridin-3-yl)-2-((2R,5S)-5-methyl-2-(2-(1-methylpiperidin-4-yl)benzo[d]thiazol-5-yl)piperidin-1-yl)-2-oxoacetamide], for which the IC50 in assay [1] (setting [7]) is less than 0.1 µM; at PRMT5 [2] (read-out: No Cofactor/rel IC50), less than 0.05 µM; at PRMT5 [3] it was less than 0.05 µM; in assay [4] (setting [9]), less than 1 µM; in assay [5], 0.1 to 1 µM; at PRMT5 [6], less than 0.05 µM. Further, in assay [1] (setting [10]), the MTAP intact/deleted ratio result is “A (an IC50 ratio greater than or equal to 10 fold)”.

For the compound `CCc1cc(NC(=O)C(=O)N2C[C@@H](C)CC[C@@H]2c2ccn3cc(C4CCN(C)CC4)nc3c2)cnc1N` [Compound 1274, N-(6-amino-5-ethylpyridin-3-yl)-2-((2R,5S)-5-methyl-2-(2-(1-methylpiperidin-4-yl)imidazo[1,2-a]pyridin-7-yl)piperidin-1-yl)-2-oxoacetamide], the IC50 was less than 0.1 µM in assay [1] (setting [11]); less than 0.05 µM on PRMT5 [2] (setting [12]); 0.05 to 0.5 µM on PRMT5 [3]; less than 1 µM in assay [4] (setting [13]); 0.1 to 1 µM in assay [5]; less than 0.05 µM on PRMT5 [6]. The “MTAP intact/deleted ratio” value in assay [1] (setting [8]) was “A (an IC50 ratio greater than or equal to 10 fold)”.

Turning to `CCc1cc(NC(=O)C(=O)N2C[C@H](C)CC[C@H]2c2ccc3sc(CCOC)nc3c2)cnc1N` (single isomer, unassigned) [Compound 1375], the IC50 in assay [1] (setting [11]) was more than 1 µM; at PRMT5 [2] (setting [12]), more than 0.5 µM; at PRMT5 [3] it was more than 0.5 µM; in assay [4] (setting [13]), more than 10 µM; in assay [5] it was more than 1 µM; at PRMT5 [6], more than 0.5 µM.

Turning to `CCc1cc(NC(=O)C(=O)N2C[C@@H](C)CC[C@@H]2c2ccc3c(c2)CCC(=O)N3)cnc1N` (single isomer, unassigned) [Compound 729], the IC50 in assay [1] (setting [7]) is 0.1 to 1 µM; at PRMT5 [2] (read-out: No Cofactor/rel IC50) it was more than 0.5 µM; on PRMT5 [3], more than 0.5 µM; in assay [4] (HAP1, viability assay, HAP1 MTAP-deleted), 1 to 10 µM; in assay [5] it was more than 1 µM; at PRMT5 [6], more than 0.5 µM. Also, the MTAP intact/deleted ratio entry in assay [1] (setting [8]) is recorded as “A (an IC50 ratio greater than or equal to 10 fold)”.

On to `CCc1cc(NC(=O)C(=O)N2C[C@@H](C)CC[C@@H]2c2ccc(N3C[C@H]4CCN(C)C[C@H]4C3)cc2)cnc1N` (racemic) [Compound 1167, N-(6-amino-5-ethyl-3-pyridyl)-2-oxo-2-[rac-(2R,5S)-5-methyl-2-[4-[rac-(3aS,7aS)-5-methyl-3,3a,4,6,7,7a-hexahydro-1H-pyrrolo[3,4-c]pyridin-2-yl]phenyl]-1-piperidyl]acetamide], for which the IC50 in assay [1] (setting [7]) is less than 0.1 µM; at PRMT5 [2] (read-out: No Cofactor/rel IC50) it was less than 0.05 µM; at PRMT5 [3], less than 0.05 µM; in assay [4] (setting [9]), less than 1 µM; in assay [5], 0.1 to 1 µM; on PRMT5 [6], less than 0.05 µM. In assay [1] (setting [10]), the MTAP intact/deleted ratio entry is recorded as “A (an IC50 ratio greater than or equal to 10 fold)”.

On to `Cc1cc(NC(=O)C(=O)N2C[C@@H](C)[C@H](CC(C)C)C[C@@H]2c2ccc3scnc3c2)cnc1N` (single isomer, unassigned) [Compound 1284], for which the IC50 in assay [1] (setting [11]) was more than 1 µM; at PRMT5 [2] (setting [12]), more than 0.5 µM; on PRMT5 [3] it was more than 0.5 µM; in assay [4] (setting [13]), more than 10 µM; in assay [5] it was more than 1 µM; at PRMT5 [6], more than 0.5 µM.

In the case of `Cc1ccc([C@@H]2CC(F)(F)[C@@H](C)CN2C(=O)C(=O)Nc2cnc(N)c(C)c2)cn1` (single isomer, unassigned) [Compound 944], the IC50 in assay [1] (setting [11]) is more than 1 µM; on PRMT5 [2] (read-out: No Cofactor/rel IC50) it was more than 0.5 µM; at PRMT5 [3] it was more than 0.5 µM; in assay [4] (setting [9]), more than 10 µM; in assay [5], more than 1 µM; at PRMT5 [6] it was more than 0.5 µM. The MTAP intact/deleted ratio result in assay [1] (setting [8]) was “C (an IC50 ratio of less than 3 fold)”.

As for `Cc1cc(NC(=O)C(=O)N2C[C@@H](C)CC[C@@H]2c2ccc(NS(C)(=O)=O)cc2)cnc1N` (single isomer, unassigned) [Compound 506], the IC50 in assay [1] (setting [7]) was more than 1 µM; on PRMT5 [2] (read-out: No Cofactor/rel IC50) it was more than 0.5 µM; on PRMT5 [3] it was more than 0.5 µM; in assay [4] (setting [9]) it was more than 10 µM; in assay [5], more than 1 µM; at PRMT5 [6], more than 0.5 µM. The MTAP intact/deleted ratio result in assay [1] (setting [8]) is listed as “B (an IC50 ratio greater than or equal to 3 fold but lower than 10 fold)”.

Regarding `Cc1cc(NC(=O)C(=O)N2C[C@H](C)CC[C@H]2c2ccc(C(F)(F)F)nc2)cnc1N` (single isomer, unassigned) [Compound 1015], the IC50 in assay [1] (setting [11]) was more than 1 µM; on PRMT5 [2] (read-out: No Cofactor/rel IC50) it was more than 0.5 µM; on PRMT5 [3], more than 0.5 µM; in assay [4] (setting [9]), more than 10 µM; in assay [5], more than 1 µM; at PRMT5 [6], more than 0.5 µM. In assay [1] (setting [8]), the MTAP intact/deleted ratio result is given as “C (an IC50 ratio of less than 3 fold)”.

As to `Cc1cc(NC(=O)C(=O)N2C[C@@H](C)CC[C@@H]2c2ccc3c(c2)CCNC3=O)cnc1N` (single isomer, unassigned) [Compound 988], the IC50 in assay [1] (setting [11]) is 0.1 to 1 µM; at PRMT5 [2] (read-out: No Cofactor/rel IC50) it was 0.05 to 0.5 µM; on PRMT5 [3], more than 0.5 µM; in assay [4] (setting [9]), 1 to 10 µM; in assay [5], more than 1 µM; on PRMT5 [6] it was less than 0.05 µM. Moreover, the MTAP intact/deleted ratio entry in assay [1] (setting [8]) is reported as “A (an IC50 ratio greater than or equal to 10 fold)”.

With `CCc1cc(NC(=O)C(=O)N2C[C@@H](C)CC[C@@H]2c2ccc(OCCN(C)C)c(Cl)c2)cnc1N` (racemic) [Compound 1305, N-(6-Amino-5-ethyl-3-pyridyl)-2-oxo-2-[rac-(2R,5S)-2-[3-chloro-4-[2-(dimethylamino)ethoxy]phenyl]-5-methyl-1-piperidyl]acetamide], the IC50 in assay [1] (setting [11]) was less than 0.1 µM; at PRMT5 [2] (setting [12]), less than 0.05 µM; on PRMT5 [3], 0.05 to 0.5 µM; in assay [4] (setting [13]) it was less than 1 µM; in assay [5], less than 0.1 µM; on PRMT5 [6] it was less than 0.05 µM. For the same compound, the “MTAP intact/deleted ratio” value in assay [1] (setting [8]) is given as “A (an IC50 ratio greater than or equal to 10 fold)”.

Consider `Cc1cc(NC(=O)C(=O)N2C[C@H](C)CC[C@H]2c2ccc(F)c(O)c2)cnc1N` (racemic) [Compound 555, N-(6-amino-5-methyl-3-pyridyl)-2-[(2R,5S)-2-(4-fluoro-3-hydroxy-phenyl)-5-methyl-1-piperidyl]-2-oxo-acetamide], for which the IC50 was less than 0.1 µM in assay [1] (setting [11]); 0.05 to 0.5 µM on PRMT5 [2] (read-out: No Cofactor/rel IC50); 0.05 to 0.5 µM at PRMT5 [3]; less than 1 µM in assay [4] (HAP1, viability IC50, MTAP-deleted cell line); 0.1 to 1 µM in assay [5]; less than 0.05 µM on PRMT5 [6]. The MTAP intact/deleted ratio entry in assay [1] (setting [8]) is “A (an IC50 ratio greater than or equal to 10 fold)”.

Take `CNc1cccc([C@@H]2CCCCN2C(=O)C(=O)Nc2cnc(N)c(C)c2)c1` (single isomer, unassigned) [Compound 357]: the IC50 was 0.1 to 1 µM in assay [1] (setting [7]); more than 0.5 µM on PRMT5 [2] (read-out: No Cofactor/rel IC50); 0.05 to 0.5 µM on PRMT5 [3]; more than 10 µM in assay [4] (setting [9]); more than 1 µM in assay [5]; 0.05 to 0.5 µM on PRMT5 [6]. Also, in assay [1] (setting [8]), the MTAP intact/deleted ratio entry is reported as “A (an IC50 ratio greater than or equal to 10 fold)”.
